Source: US4814336A, “Method of treating a vascular obstructive lesion resulting from restricted blood circulation” (CHINOIN Gyogyszer es Vegyeszeti Termekek Gyara Rt, priority 1985, dated 1989)

Tests used:
[1] = tested on: contracted (shrunken) erythrocytes; experiment: In vitro filtrability (filtration half-time T1/2) of contracted (shrunken) erythrocytes, method of Teitel; type: cell-based, human; conditions: from ID50
Description: FIG. 1 is a set of two graphs in which the filtration half-times (T1/2) for contracted (shrunken) erythrocytes are plotted along the Y-axis as a percentage of the filtration half-time for normal erythrocytes (control) against doses of respectively Trental and Depogen.
(§1) For the examination of the in vitro filtrability of the erythrocytes the method of Teitel (Nouv. Rev. Franc. Haematol. 7. 195 (1967)) was used where the filtration rate of concentrated erythrocyte suspension was measured. In the test fresh, normal erythrocytes, fresh in hyperosmotic solution shrunken erythrocytes and erythrocytes stored in CPD blood-conserving solution contracted for 30 days at +4° C. were used. The results are given in FIGS. 1 and 2 (the filtrability of the contracted erythrocytes and that of the erythrocytes stored for 30 days were given as the % of the filtrability of the control fresh, normal erythrocytes.)
(§2) The effect depends in the case of both drugs on the doses. The optimal effect may be achieved with Depogen in lower concentration interval (0.5 to 1.5 μumol) than in case of Trental (5 to 10 μumoles).

[2] = tested on: erythrocytes stored for 30 days; experiment: In vitro filtrability (filtration half-time T1/2) of erythrocytes stored for 30 days, method of Teitel; type: cell-based, human; conditions: from ID50
Description: FIG. 2 is a set of two graphs in which the filtration half-time (T1/2) for erythrocytes stored for 30 days are plotted along the Y-axis as a percentage of the filtration half-time for normal erythrocytes (control) against doses of respectively Trental and Depogen.
as §1, §2

erythrocytes [3] = experiment: In vitro filtrability of erythrocytes (filtration half-time), statements on both erythrocyte types; type: cell-based, human; conditions: for filtrability of the erythrocytes (result in words): FIGS. 1 and 2, T1/2 decreased
Description: as §1, §2

[4] = tested on: erythrocytes of patients with lower leg and cerebral obliterating vascular diseases; experiment: Erythrocyte filtrability (T1/2) of patients with lower leg and cerebral obliterating vascular diseases after 10 days treatment; type: in vivo, human patients; conditions: 450 mg/day orally; for T1/2 average of erythrocyte filtration after treatment: before treatment 18.15 min, healthy control 8.7 min
Description: (§3) The clinical examinations carried out on patients suffering from lower leg and cerebral obliterating vascular diseases gave the following results: 41 patients were treated for 10 days in a dose of 450 mg/day Depogen or Trental orally (beside 5 healthy controls).

[5] = tested on: patients suffering from cerebral obliterating vascular diseases; experiment: Clinical examination, cerebral obliterating vascular disease, symptoms; type: in vivo, human patients; conditions: 450 mg/day orally, 10 days
Description: as §3

[6] = tested on: patients suffering from lower leg obliterating vascular diseases; experiment: Clinical examination, lower leg obliteration; type: in vivo, human patients; conditions: 450 mg/day orally, 10 days; Depogen compared with Trental
Description: as §3

[7] = tested on: patients suffering from cerebral obliterating vascular diseases; experiment: EEG examination; type: in vivo, human patients; conditions: 450 mg/day orally, 10 days; for EEG deteriorated (number of patients) / EEG improved (number of patients) / EEG unchanged (number of patients): total 9 (Trental), 8 (Depogen)
Description: as §3

[8] = tested on: patients suffering from cerebral obliterating vascular diseases; experiment: ECHO examination; type: in vivo, human patients; conditions: 450 mg/day orally, 10 days; for ECHO deteriorated (number of patients) / ECHO improved (number of patients) / ECHO unchanged (number of patients): total 9 (Trental), 8 (Depogen)
Description: as §3

[9] = tested on: extremital vascular resistence; conditions: patients, doses up to 300 mg/day; cited from earlier work
erythrocytes [10] = conditions: Angiology 36, 4, 226-234 (1985); cited from earlier work

## CCOc1ccc(CC2=NCCc3cc(OCC)c(OCC)cc32)cc1OCC [Depogen, 1-(3',4'-diethoxybenzyl)-6,7-diethoxy-3,4-dihydroisoquinolinium-theophyllin-7-acetate]
[1]
  Rel. activity Depogen/Trental: 16.3
[2]
  Rel. activity Depogen/Trental: 31.6
Erythrocytes [3]; in vitro
  filtrability of the erythrocytes (result in words): increase the filtrability of the erythrocytes significantly
Erythrocytes [3]; in vitro, concentration for the half-maximal effect
  times lower concentration exerting the same effect as Trental: 10 to 25 times
Erythrocytes [3]; in vitro, Depogen
  optimal effect on filtrability, concentration interval: 0.5 to 1.5 μumol
Erythrocytes [3]; proved by both ex vitro and in vivo tests
  filtrability of pathological human erythrocytes (result in words): increases the filtrability of the pathological human erythrocytes significantly
[4]
  filtrability of the erythrocytes after treatment (result in words): the filtrability of the erythrocytes has been normalized
  T1/2 average of erythrocyte filtration after treatment: 9.53 min
[5]
  effect in cerebral vascular disease, symptoms: the symptoms have decreased
[6]
  effect in lower leg obliteration: the two drugs have the same effect
[7]
  EEG improved (% of patients): 87.5%
  EEG unchanged (% of patients): 12.5%
  EEG deteriorated (number of patients): 0
  EEG improved (number of patients): 7
  EEG unchanged (number of patients): 1
[8]
  ECHO improved (% of patients): 12.5%
  ECHO unchanged (% of patients): 87.5%
  ECHO deteriorated (number of patients): 0
  ECHO improved (number of patients): 1
  ECHO unchanged (number of patients): 7
[9]
  peripheral vasodilating effect and extremital vascular resistence: has a peripheral vasodilating effect and decreases the extremital vascular resistence

## CC(=O)CCCCn1c(=O)c2c(ncn2C)n(C)c1=O [Trental, 3,7-dihydro-3,7-dimethyl-1--(5-oxohexyl)-1H-purine-2,6-dione, reference compound]
Erythrocytes [3]; in vitro
  filtrability of the erythrocytes (result in words): increase the filtrability of the erythrocytes significantly
Erythrocytes [3]; in vitro, Trental
  optimal effect on filtrability, concentration interval: 5 to 10 μumoles
[4]
  filtrability of the erythrocytes after treatment (result in words): the treatment was also in this case successful
  T1/2 average of erythrocyte filtration after treatment: 12.1 min
[6]
  effect in lower leg obliteration: the two drugs have the same effect
[7]
  EEG improved (% of patients): 44.5%
  EEG unchanged (% of patients): 55.5%
  EEG deteriorated (number of patients): 0
  EEG improved (number of patients): 4
  EEG unchanged (number of patients): 5
[8]
  ECHO unchanged (% of patients): 100%
  ECHO deteriorated (number of patients): 0
  ECHO improved (number of patients): 0
  ECHO unchanged (number of patients): 9
Erythrocytes [10]
  rheological parameters of the blood, plasticity of the erythrocytes: improves some rheological parameters of the blood, first of all the plasticity of the erythrocytes
